pIC50: −log10 of the molar value. Structures can show the parent of a compound that is named as a salt. Where two headings read alike, the source gives them in different places. Each block holds one molecule with its values, some of them ahead of it.
Tested on: amyloid β production in transfected H4 (human neuroglioma) cells stably expressing APP constructs
Experiment: In vitro cell-based assay of inhibitors of amyloid β production (ELISA)
Outline: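 Sandwich ELISA read-out: Aβ in conditioned medium captured via C-terminal epitope mAb, detected with N-terminus-specific rabbit polyclonal, quantified from a standard curve. Compounds 10-100 μM, ~16 h exposure. Active = ≥50% inhibition vs control without significant cytotoxicity; dose-response follows.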

[1] = transfected H4 cells stably expressing APP, approx. 16 h incubation, amyloid β in medium by ELISA, read-out: ACTIVITY (IC50, inhibition of amyloid β production)
[2] = Homo sapiens, 16 h, transfected H4 cells expressing APP, approximately 16 hours incubation, amyloid β in medium by ELISA, read-out: ACTIVITY (IC50, inhibition of amyloid β production)
[3] = transfected H4 cells stably expressing APP constructs, approximately 16 hours incubation, amyloid β in medium by ELISA, read-out: ACTIVITY (IC50, inhibition of amyloid β production)
[4] = Homo sapiens, 16 h, transfected H4 cells stably expressing APP, approximately 16 hours incubation, amyloid β in medium by ELISA, read-out: ACTIVITY (IC50, inhibition of amyloid β production)
[5] = transfected H4 cells stably expressing APP, approximately 16 hours incubation, amyloid β in medium by ELISA, read-out: ACTIVITY (IC50, inhibition of amyloid β production)
[6] = Homo sapiens, 16 h, transfected H4 cells stably expressing APP constructs, approximately 16 hours incubation, amyloid β in medium by ELISA, read-out: ACTIVITY (IC50, inhibition of amyloid β production)
[7] = Table B, transfected H4 cells stably expressing APP, approximately 16 hours incubation, amyloid β in medium by ELISA, read-out: ACTIVITY (inhibitory concentration IC50, inhibition of amyloid β production)

Molecule: C[C@H](CCCN1CCC(CS(C)(=O)=O)CC1)N(c1cc(Cl)ccc1Cl)S(=O)(=O)c1ccc(Cl)cc1 [Example 1157, 4-chloro-N-(2,5-dichlorophenyl)-N-[4-[[4-(methylsulfonyl)methyl]-1-piperidinyl]-1(R)-methylbutyl)benzenesulfonamide]
pIC50 [3]: 6.30 to 7.00

Molecule: C[C@H](CCCS(C)(=O)=O)N(c1cc(Cl)ccc1Cl)S(=O)(=O)c1ccc(Cl)cc1 [Example 1162, 4-chloro-N-[2,5-dichlorophenyl]-N-[1(R)-methyl-(4-methylsulfonyl]butyl]benzenesulfonamide]
pIC50 [3]: ≥ 7.60

Molecule: 4-chloro-N-(2,5-dichlorophenyl)-N-[5-(1,1-dioxido-4-thiomorpholinyl)-1(R)-methylpropyl]benzenesulfonamide [Example 1104]
pIC50 [3]: ≥ 7.60

Molecule: C[C@H](C(=O)NCc1ccc(C2=CSNN2)cc1)N(c1cc(Cl)ccc1F)S(=O)(=O)c1ccc(Cl)cc1 [Example 1366]
pIC50 [2]: < 6.30

Molecule: CSCCC[C@@H](C)N(c1cc(Cl)ccc1Cl)S(=O)(=O)c1ccc(Cl)cc1 [Example 1176, 4-chloro-N-[2,5-dichlorophenyl]-N-[1(R)-methyl-(4-methylthio)butyl]benzenesulfonamide]
pIC50 [3]: ≥ 7.60

Molecule: O=S(=O)(c1ccc(Cl)cc1)N(Cc1ccccc1OCCCN1CCCCC1)c1cccc(Cl)c1 [Example 235, 4-Chloro-N-(3-chlorophenyl)-N-{2-[3-(1-piperidinyl)propoxy]benzyl}benzenesulfonamide Hydrochloride]
pIC50 (read-out: ACTIVITY (inhibitory concentration IC50, inhibition of amyloid β production)): 7.30 to 7.60

Molecule: 2-[2-((1R)-1-{[(4-chlorophenyl)sulfonyl]-2,5-difluoroanilino}ethyl)phenyl]ethyl 3,4-difluorobenzylcarbamate [Example 726]
pIC50 [1]: 6.30 to 7.00

Molecule: C[C@H](c1ccc(F)cc1CCCCS(=O)(=O)N1CCS(=O)(=O)CC1)N(c1cc(F)ccc1F)S(=O)(=O)c1ccc(Cl)cc1 [Example 1071]
pIC50 [5]: < 6.30

Molecule: C[C@H](CCCS(C)(=O)=O)N(c1cc(Cl)ccc1CO)S(=O)(=O)c1ccc(Cl)cc1 [Example 1225, 4-chloro-N-[5-chloro-2-(hydroxymethyl)phenyl]-N-[1(R)-methyl-(4-methylsulfonyl)butyl]benzenesulfonamide]
pIC50 [3]: ≥ 7.60

Molecule: CN1CCCC1CCOc1ccccc1CN(c1ccccc1)S(=O)(=O)c1ccc(Cl)cc1 (stereo not drawn) [Example 962, 4-chloro-N-{2-[2-(1-methyl-2-pyrrolidinyl)ethoxy]benzyl}-N-phenylbenzenesulfonamide hydrochloride]
pIC50 [4]: < 6.30

Molecule: CCSCCC[C@@H](C)N(c1cc(Cl)ccc1Cl)S(=O)(=O)c1ccc(Cl)cc1 [Example 1183, 4-chloro-N-[2,5-dichlorophenyl]-N-[1(R)-methyl-(4-ethylthio)butyl]benzenesulfonamide]
pIC50 [3]: ≥ 7.60

Molecule: C[C@H](CCC[S+](C)[O-])N(c1cc(Cl)ccc1CO)S(=O)(=O)c1ccc(Cl)cc1 (stereo partly drawn) [Example 1224, 4-chloro-N-[5-chloro-2-(hydroxymethyl)phenyl]-N-[1(R)-methyl-(4-methylsulfinyl)butyl]benzenesulfonamide]
pIC50 [3]: ≥ 7.60

Molecule: C[C@H](COC(=O)NC1CCCCC1)N(c1cc(Cl)ccc1CO)S(=O)(=O)c1ccc(Cl)cc1 [Example 1284]
pIC50 [2]: ≥ 7.60

Molecule: N-{3-[2-(1-{[(4-chlorophenyl)sulfonyl]-2,5-difluoroanilino}ethyl)phenoxy]propyl}-4-fluorobenzamide [Example 679]
pIC50 [1]: 6.30 to 7.00

Molecule: O=[N+]([O-])c1cc(Cl)ccc1COC1CCCCO1 (stereo not drawn) [Example 2, 4-Chloro-2-nitro-1-[[(tetrahydro-2H-pyran-2-yl)oxy]methyl]benzene]
pIC50 [7]: ≥ 7.60

Molecule: 3-[2-((1R)-1-{[(4-chlorophenyl)sulfonyl]-2,5-difluoroanilino}ethyl)phenyl]-N-(2,5-difluorobenzyl)propanamide [Example 383]
pIC50 (transfected H4 cells stably expressing APP, approximately 16 hours incubation, amyloid β in medium by ELISA, Table B, read-out: ACTIVITY (IC50, inhibition of amyloid β production)): 7.00 to 7.30

Molecule: O=S(=O)(c1ccc(Cl)cc1)N(Cc1ccccc1O)c1cc(F)ccc1F [Example 1054, 4-chloro-N-(2,5-difluorophenyl)-N-(2-hydroxybenzyl)benzenesulfonamide]
pIC50 [4]: < 6.30

Now from value to molecule:

pIC50 [1]: 6.30 to 7.00
Molecule: C[C@H](c1ccccc1CCOC(=O)NC1CCCCC1)N(c1cc(F)ccc1F)S(=O)(=O)c1ccc(Cl)cc1 [Example 685, 2-[2-((1R)-1-{3-[2-(1-{[(4-chlorophenyl)sulfonyl]-2,5-difluoroanilino}ethyl)phenyl]ethyl cyclohexylcarbamate]

pIC50 [2]: < 6.30
Molecule: C[C@H](C(=O)NCCOc1ccccc1)N(c1cc(Cl)ccc1F)S(=O)(=O)c1ccc(Cl)cc1 [Example 1318]

pIC50 (Homo sapiens, 16 h, transfected H4 cells stably expressing APP, approximately 16 hours incubation, amyloid β in medium by ELISA, Table B, read-out: ACTIVITY (IC50, inhibition of amyloid β production)): 7.00 to 7.30
Molecule: C[C@H](c1ccc(F)cc1CCOC(=O)NCc1ccco1)N(c1cc(F)ccc1F)S(=O)(=O)c1ccc(Cl)cc1 [Example 435, 2-[2-((1R)-1-{[(4-chlorophenyl)sulfonyl]-2,5-difluoroanilino}ethyl)-5-fluorophenyl]ethyl 2 furylmethylcarbamate]

pIC50 [2]: < 5.00
Molecule: C[C@H](CCCOC(=O)NCCn1ccnc1)N(c1cc(Cl)ccc1CO)S(=O)(=O)c1ccc(Cl)cc1 [Example 1292]

pIC50 [2]: ≥ 7.60
Molecule: C[C@H](COC(=O)NCCCn1ncnn1)N(c1cc(Cl)ccc1F)S(=O)(=O)c1ccc(Cl)cc1 [Example 1295]

pIC50 [4]: < 6.30
Molecule: C[C@H](c1ccccc1OCCCN1CCCCC1)N(c1cc(Cl)ccc1CO)S(=O)(=O)c1ccc(Cl)cc1 [Example 1062, 4-chloro-N-[5-chloro-2-(hydroxymethyl)phenyl]-N-((1R)-1-{2-[3-(1-piperidinyl)propoxy]phenyl}ethyl)benzenesulfonamide hydrochloride]

pIC50 [5]: 6.30 to 7.00
Molecule: N-{3-[2-({[(4-chlorophenyl)sulfonyl]-2,5-difluoroanilino}methyl)phenoxy]propyl}-N-methyl-4-(trifluoromethoxy)benzamide [Example 873]

pIC50 [5]: < 6.30
Molecule: N-{3-[2-(1-{[(4-chlorophenyl)sulfonyl]-2,5-difluoroanilino}ethyl)phenoxy]propyl}-N-methyl-1-naphthamide [Example 966]

pIC50 [2]: < 6.30
Molecule: COc1cc(CNC(=O)[C@@H](C)N(c2cc(Cl)ccc2F)S(=O)(=O)c2ccc(Cl)cc2)cc(OC)c1OC [Example 1362]

pIC50 [5]: 6.30 to 7.00
Molecule: N-{4-[2-(1-{[(4-chlorophenyl)sulfonyl]-2,5-difluoroanilino}ethyl)phenoxy]butyl}-N-methyl-1-adamantanecarboxamide [Example 846]

pIC50 (Homo sapiens, 16 h, transfected H4 cells stably expressing APP, approx. 16 h incubation, amyloid β in medium by ELISA, read-out: ACTIVITY (IC50, inhibition of amyloid β production)): 6.30 to 7.00
Molecule: O=C(c1cccc2ccccc12)N1CCCCC1CCOc1ccccc1CN(c1cc(F)ccc1F)S(=O)(=O)c1ccc(Cl)cc1 (stereo not drawn) [Example 792, 4-chloro-N-(2,5-difluorophenyl)-N-(2-{2-[1-(1-naphthoyl)-2-piperidinyl]ethoxy}benzyl)benzenesulfonamide]

pIC50 [4]: < 6.30
Molecule: COc1ccc(S(=O)(=O)N(Cc2ccccc2OCCCN2CCCCC2)c2cc(F)ccc2F)cc1 [Example 879, N-(2,5-difluorophenyl)-4-methoxy-N-{2-[3-(1-piperidinyl)propoxy]benzyl}benzenesulfonamide hydrochloride]

pIC50 [4]: < 6.30
Molecule: C[C@H](c1ccccc1OCCCn1ccnc1)N(c1cc(F)ccc1F)S(=O)(=O)c1ccc(Cl)cc1 [Example 908, 4-chloro-N-(2,5-difluorophenyl)-N-((1R)-1-{2-[3-(1H-imidazol-1-yl)propoxy]phenyl}ethyl)benzenesulfonamide hydrochloride]

pIC50 [6]: ≥ 7.60
Molecule: C[C@H](CCCS(=O)(=O)N(C)C)N(c1cc(Cl)ccc1Cl)S(=O)(=O)c1ccc(Cl)cc1 [Example 1201, 4-chloro-N-[2,5-dichlorophenyl]-N-[4-[(dimethylamino)sulfonyl]-1(R)-methylbutyl]benzenesulfonamide]

pIC50 [1]: 6.30 to 7.00
Molecule: methyl (2S)-2-[[2-((1R)-1-{[(4-chlorophenyl)sulfonyl]-2,5-difluoroanilino}ethyl)benzyl](methyl)amino]propanoate [Example 779]

pIC50 [7]: ≥ 7.60
Molecule: COC(=O)C[S+]([O-])C[C@@H](C)N(c1cc(Cl)ccc1Cl)S(=O)(=O)c1ccc(Cl)cc1 (stereo partly drawn) [Example 178, Methyl(5R)-5-[(2,5-dichlorophenyl)[(4-chlorophenyl)sulfonyl]amino]-3-thiohexanoate,3 Oxide]

pIC50 [5]: < 6.30
Molecule: [2-((1R)-1-{[(4-chlorophenyl)sulfonyl]-2,5-difluoroanilino}ethyl)-5-fluorophenyl]methanesulfonic acid [Example 1009]

pIC50 [6]: 6.30 to 7.00
Molecule: C[C@H](CCCNC(=O)C(C)(C)C)N(c1cc(Cl)ccc1Cl)S(=O)(=O)c1ccc(Cl)cc1 (stereo in doubt) [Example 1137, 4-chloro-N-(2,5-dichlorophenyl)-N-[4-[[(1,1-dimethylethyl)carbonyl]amino]-1-methylbutyl]benzenesulfonamide]

pIC50 [4]: 6.30 to 7.00
Molecule: C[C@H](c1ccccc1Br)N(c1cc(F)ccc1F)S(=O)(=O)c1ccc(Cl)cc1 [Example 855, N-[(1R)-1-(2-bromophenyl)ethyl]-4-chloro-N-(2,5-difluorophenyl)benzenesulfonamide]

— patent US6967196B1, “Sulfonamide compounds and uses thereof” (Bristol-Myers Squibb Company, priority 1999, dated 2005)
